# Measurements from patent US6225478A, “Iridoid derivatives and neovascularization inhibitors containing the same as active ingredient” (Tsumura & Co., priority 1999, dated 2001).
# Experiments:
# Type in all cases: cell-based
# [1] = test system: human umbilical-vein endothelial cells (HUVEC); assay: Cell Proliferation Assay (CPA) Test, HUVEC, MTT; conditions: Homo sapiens, M199 (2+) medium, read-out: CPA (IC50 μg/ml)
# Protocol: (§1) Furthermore, the sample liquids of compounds used in the CPA and CMA tests were prepared in the manner described below. Firstly, after weighing out each compound, a calculated amount of DMSO was added. After dissolving the compound in the DMSO, phosphate buffered physiological saline (PBS (-)) was added to bring the sample concentration to 1 mg/ml in PBS (-). The amount of DMSO used to dissolve the compounds was adjusted in advance to that the concentration of DMSO at that time was 5%. The resulting liquids were diluted 10-fold with 5% DMSO-PBS (-) solution to prepare sample solutions having a concentration of 0.1 mg/ml. In the TFA test, 320 μl of the prepared 1 mg/ml sample solutions were removed followed by addition of 680 μl of PBS (-) to prepare samples having a concentration of […]. Moreover, 100 μl of this solution was removed followed by addition of 900 μl of PBS (-) to dilute 10-fold and prepare samples having a concentration of 1 μg/ml. P [Cell Proliferation Assay (CPA) Test]
# 100 μl of the 7th subculture obtained from first generation human umbilical-vein endothelial cells (HUVEC) were disseminated in the wells (N=3) of a 96-well plate (Iwaki, Cat. #4860-010) at a cell concentration of 5×10^4 cells/ml. M-199 medium containing +20% FCS, 10 ng/ml of b-FGF and 10 ng/ml of EGF (abbreviated as "M199 (2+)") was used for the medium.
# After culturing for 24 hours at 37° C. in the presence of 5% CO2 under the above conditions, 20 μl/well of MTT solution (solution containing 5 mg/ml of PBS (-)) were added to the control well followed by accurately culturing for 4 hours at 37° C. in the presence of 5% CO2. Following completion of culturing, 100 μl/well of a stop solution (0.001 N aqueous HCl solution containing 10% SDS) were added. On the other hand, 10 μl/well of sample solutions at concentrations of 1 mg/ml and 0.1 mg/ml were added to the other wells.
# After culturing for 24 hours at 37° C. in the presence of 5% CO2, the medium was replaced and 100 μl/well of M199 (2+) were added. The samples were also replaced in each well at this time.
# Moreover, after additionally culturing for 48 hours at 37° C. in the presence of 5% CO2, 20 μl/well of MTT solution were added to the wells containing sample and the control well followed by accurately culturing for 4 hours at 37° C. and adding 100 μl/well of stop solution.
# [2] = test system: human umbilical-vein endothelial cells (HUVEC); assay: Cell Migration Assay (CMA) Test, HUVEC (% relative to control); conditions: Homo sapiens, HUVEC, 24 hours, 60% or less = remarkable inhibition, read-out: CMA (% relative to control); for activity at 1 µg/mL: 1 μg/ml; for activity at 10 µg/mL: 10 μg/ml
# Protocol: as §1
# After disseminating the 7th subculture of HUVEC obtained from the first generation in the same manner as above at 4 ml/well (3.0×10^5 cells/well) in a collagen-coated 6-well plate (NUNC), the cells were cultured for 48 hours at 37° C. in the presence of 5% CO2. The cells reached nearly a completely confluent state as a result of this culturing.
# A double-edged, disposable razor blade was divided into four sections, of which one of those sections was pinched between a pair of forceps. Using this piece of razor blade, the cell surface in the above confluent state was scraped off. Two areas of the cell surface were scraped off in each well.
# After washing the surface of the wells from which the cells had been scraped off with medium, 4.0 ml of fresh M199 (2+) medium were added followed by addition of 40 μl or 4 μl of sample solution (1 mg/ml). The cells were cultured for 24 hours at 37° C. in the presence of 5% CO2. After discarding the culture liquid, the cells were fixed for 30 minutes with methanol. Next, after staining the cells for 4 hours with Giemsa stain, the plates were washed with tap water and air dried.
# Measurement of cell migration was performed by microscopically counting the number of cells that had newly migrated within the range of a 1 mm×1 mm block. […] The total number of cells counted in blocks 1 through 5 were then totaled to determine the overall total number of cells. Four fields were counted for each well.
# Evaluation was performed determining the cell migration (%) according to the following formula.
# Cell migration rate=number of migrating cells to which sample was added×100/number of migrating of control (+)
# Control (+) indicates the number of migrating cells in the control well containing M199 (2+).
# [3] = test system: human umbilical-vein endothelial cells (HUVEC); assay: Tube Formation Assay (TFA) Test, HUVEC in collagen gel; conditions: Homo sapiens, HUVEC, 20 h, 20 hours, 40% or less judged remarkable, read-out: TFA (inhibition rate, %); for inhibition at 1 µg/mL: 1 μg/ml; for inhibition at 10 µg/mL: 10 μg/ml
# Procedure, shortened: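 HUVEC (7th subculture, 1×10^5 cells/ml) attached to collagen gel for 2 h at 37 °C, given sample and overlaid with collagen, then cultured 20 h at 37 °C, 5% CO2 in M-199 with 20% FCS, 30 ng/ml b-FGF and 0.1 μM PMA. Tube length measured by image analysis; % inhibition relative to positive and negative controls.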
Structure (SMILES),IC50 [1] [µg/mL],activity at 1 µg/mL [2] [%],activity at 10 µg/mL [2] [%],inhibition at 1 µg/mL [3] [%],inhibition at 10 µg/mL [3] [%]
"C=CCOC(=O)C1=CO[C@@H](OC(=O)NC)[C@@H]2[C@@H]1C[C@@H]1O[C@]21C [compound 9, (1S,4aS,6S,7R,7aR)-6,7-epoxy-1,4a,5,6,7,7a-hexahydro-7-methyl-1-(methylcarbamoyloxy) cyclopenta [c]-pyrane-4-carboxylic acid allylester]",> 100,111,116,11,16.5
"CNC(=O)OC1OC=C(C(=O)OCc2ccco2)C2CC3OC3(C)C12 [compound 10, (1S,4aS,6S,7R,7aR)-6,7-epoxy-1,4a,5,6,7,7a-hexahydro-7-methyl-1-(methylcarbamoyloxy) cyclopenta [c]-pyrane-4-carboxy-lic acid furfurylester]",93.3,101,103,28.6,27.7
"CNC(=O)O[C@@H]1OC=C(C(=O)OCc2ccccc2)[C@H]2C[C@@H]3O[C@]3(C)[C@H]12 [compound 11, (1S,4aS,6S,7R,7aR)-6,7-epoxy-7-methyl-1-(methylcarbamoyloxy)-1,4a,5,6,7,7a-hexahydrocyclopenta [c]-pyrane-4-carboxylic acid benzyl ester]",> 100,102,85.5,20.7,40.3
"CNC(=O)O[C@@H]1OC=C(C(=O)OCCc2ccccc2)[C@H]2C[C@@H]3O[C@]3(C)[C@H]12 [compound 12, (1S,4aS,6S,7R,7aR)-6,7-epoxy-1,4a,5,6,7,7a-hexahydro-7-methyl-1-(methylcarbamoyloxy) cyclopenta [c]-pyrane-4-carboxylic acid phenylethylester]",> 100,101,89.8,32.7,32.5
"CNC(=O)O[C@@H]1OC=C(C(=O)Oc2ccccc2)[C@H]2C[C@@H]3O[C@]3(C)[C@H]12 [compound 13, (1S,4aS,6S,7R,7aR)-6,7-epoxy-1,4a,5,6,7,7a-hexahydro-7-methyl-1-(methylcarbamoyloxy) cyclopenta [c]-pyrane-4-carboxylic acid phenylester]",53.3,94.1,94,36.3,36.8
"CNC(=O)O[C@@H]1OC=C(C(=O)OC2CCCCC2)[C@H]2C[C@@H]3O[C@]3(C)[C@H]12 [compound 14, (1S,4aS,6S,7R,7aR)-6,7-epoxy-1,4a,5,6,7,7a-hexahydro-7-methyl-1-(methylcarbamoyloxy) cyclopenta [c]-pyrane-4-carboxylic acid cyclohexylester]",> 100,99.4,102,38.2,48.7
"CNC(=O)O[C@@H]1OC=C(C(=O)NC)[C@H]2C[C@@H]3O[C@]3(C)[C@H]12 [compound 15, (1S,4aS,6S,7R,7aR)-6,7-epoxy-1,4a,5,6,7,7a-hexahydro-7-methyl-1-(methylcarbamoyloxy) cyclopenta [c]-pyrane-4-carboxylic acid methylamide]",> 100,71.1,58.3,-16,-8
"CCNC(=O)C1=CO[C@@H](OC(=O)NC)[C@@H]2[C@@H]1C[C@@H]1O[C@]21C [compound 16, (1S,4aS,6S,7R,7aR)-6,7-epoxy-1,4a,5,6,7,7a-hexahydro-7-methyl-1-(methylcarbamoyloxy) cyclopenta [c]-pyrane-4-carboxylic acid ethylamide]",> 100,98.1,102,30.7,21.6
"CCCCCCNC(=O)C1=COC(OC(=O)NC)C2C1CC1OC12C [compound 17, (1S,4aS,6S,7R,7aR)-6,7-epoxy-1,4a5 6,7,7a-hexahydro-7-methyl-1-(methylcarbamoyloxy) cyclopenta [c]-pyrane-4-carboxylic acid n-hexylamide]",69.1,94.4,114,19,23.4
CNC(=O)OC1OC=C(C(=O)N(C)C)C2CC3OC3(C)C12 (stereo not shown) [compound 18],> 100,90.3,71.5,28.6,27.7
"CCN(CC)C(=O)C1=CO[C@@H](OC(=O)NC)[C@@H]2[C@@H]1C[C@@H]1O[C@]21C [compound 19, (1S,4aS,6S,7R,7aR)-6,7-epoxy-1,4a,5,6,7,7a-hexahydro-7-methyl-1-(methylcarbamoyloxy) cyclopenta [c]-pyrane-4-carboxylic acid diethylamide]",> 100,96.4,93.5,23.6,21.3
"CNC(=O)OC1OC=C(C(=O)N2CCN(C)CC2)C2CC3OC3(C)C12 [compound 20, (1S,4aS,6S,7R,7aR)-6,7-epoxy-1,4a,5,6,7,7a-hexahydro-7-methyl-1-(methylcarbamoyloxy) cyclopenta [c]-pyrane-4-carboxylic acid 4-methylpiperazylamide]",> 100,97.4,89.5,34.3,19.6
"CNC(=O)O[C@@H]1OC=C(C(=O)NC2CCCCC2)[C@H]2C[C@@H]3O[C@]3(C)[C@H]12 [compound 21, (1S,4aS,6S,7R,7aR)-6,7-epoxy-1,4a,5,6,7,7a-hexahydro-7-methyl-1-(methylcarbamoyloxy) cyclopenta [c]-pyrane-4-carboxylic acid cyclohexylamide]",> 100,105,101,29.5,23.2
"CNC(=O)OC1OC=C(C(=O)N2CCN(CCO)CC2)C2CC3OC3(C)C12 [compound 22, (1S,4aS,6S,7R,7aR)-6,7-epoxy-1,4a,5,6,7,7a-hexahydro-7-methyl-1-(methylcarbamoyloxy) cyclopenta [c]-pyrane-4-carboxylic acid 4-(2-hydroxyethyl) piperazylamide]",> 100,93.4,97.7,50.8,74.9
